According to patent US20220315574A1, “Beta-Arrestin-Modulating Compounds and Methods of Using Same” (Duke University, priority 2019, published 2022):

Assays:
[1] = molecular target: βarr2 (Rattus norvegicus, UniProt P29067); test: Negative-stain electron microscopy, 2D class averages of βarr2; parameters: final βarr2 (truncated βarr2 at 394) concentration of ˜1 mg/mL; made in house; conditions: control βarr 97% monomeric
Protocol: To prepare for EM visualization of the architecture and structural organization of βarr2-Cmpd30 complexes, purified βarr2 (394) was diluted to 0.5 μM and incubated with 5 μM Cmpd-30 or vehicle (DMSO) in HN buffer (20 mM HEPES pH 7.4 and 150 mM NaCl) for 7 min at room temperature followed by dilution 10× into HN buffer containing 1 μM Cmpd-30, before negative staining. The positive control, βarr2 bound to IP6 sample was prepared similarly (5 μM and 250 μM, respectively) and was diluted 100× into HN buffer containing 10 μM IP6. Grids were prepared using conventional negative-staining protocols as described previously (Peisley, A. & Skiniotis, G. 2D Projection Analysis of GPCR Complexes by Negative Stain Electron Microscopy. Methods Mol Biol 1335, 29-38, doi:10.1007/978-1-4939-2914-6_3 (2015). Briefly, 3 μL of samples were applied onto a glow-discharged EM carbon-coated copper grid, adsorbed on the grid surface, blotted, stained, and air dried before imaging. EM grids were examined with a FEI Tecnai G2 Twin electron microscope and operated at an acceleration voltage of 120 kV. Images were recorded with an Eagle 2K CCD camera at a magnification of ×65,200 and a defocus value of ˜1.5 μm. Two-dimensional EM reference-free alignment and classification of particle projections were performed with the iterative stable alignment and clustering procedure (ISAC)(Yang, Z., et al., Iterative stable alignment and clustering of 2D transmission electron microscope images. Structure 20, 237-247, doi:10.1016/j.str.2011.12.007 (2012)). EM single particles were both automatically and manually selected using Boxer (part of the EMAN 2.1 software suite)(Tang, G. et EMAN2: an extensible image processing suite for electron microscopy. J Struct Biol 157, 38-46, doi:10.1016/j.jsb.2006.05.009 (2007)). A total of ˜250,000 0° particles projections were picked representing all the three βarr2 samples (with vehicle, Cmpd-30 or IP6) and windowed into 96×96-pixel images (with the RELION 2.1-beta-1 software package) and subjected to ISAC. […]

[2] = molecular target: T1, βarr2 recruitment to agonist-activated β2V2R (Homo sapiens, UniProt P32121); test: DiscoveRx PathHunter β-arrestin recruitment assay in U2OS cells; assay type: cell-based; conditions: series of compound concentrations, 30 min pretreatment, isoproterenol dose-response
T1 construct: host or cells: U2OS
Protocol: β-arrestin recruitment to the agonist-activated receptor (02V2R) was measured using the DiscoveRx PathHunter β-arrestin assay (Ahn, S. et al. Allosteric “beta-blocker” isolated from a DNA-encoded small molecule library. Proc Natl Acad Sci U SA 114, 1708-1713, doi:10.1073/pnas.1620645114 (2017)). […] Agonist-stimulated recruitment of βarr2 to the receptor results in the formation of functionally active β-gal enzyme. Addition of substrate generates a chemiluminescence signal directly correlated to the extent of recruitment. U2OS cells co-expressing β2V2R and βarr2 were plated in 96-well clear-bottomed plates at a density of 25,000 cells per well (80 μL per well), 24 hours prior to compound treatment. On the day of experiment, cells were first treated with compound or vehicle for 30 min, followed by agonist (Iso) stimulation for 60 min at 37° C. Cells were then treated with PathHunter™ detection reagents for 90 min at 37° C., and luminescence signals were measured using a CLARIOstar microplate reader (BMG Labtech Inc., Cary, N.C.).

Chain of βarr2 (P29067 1-394): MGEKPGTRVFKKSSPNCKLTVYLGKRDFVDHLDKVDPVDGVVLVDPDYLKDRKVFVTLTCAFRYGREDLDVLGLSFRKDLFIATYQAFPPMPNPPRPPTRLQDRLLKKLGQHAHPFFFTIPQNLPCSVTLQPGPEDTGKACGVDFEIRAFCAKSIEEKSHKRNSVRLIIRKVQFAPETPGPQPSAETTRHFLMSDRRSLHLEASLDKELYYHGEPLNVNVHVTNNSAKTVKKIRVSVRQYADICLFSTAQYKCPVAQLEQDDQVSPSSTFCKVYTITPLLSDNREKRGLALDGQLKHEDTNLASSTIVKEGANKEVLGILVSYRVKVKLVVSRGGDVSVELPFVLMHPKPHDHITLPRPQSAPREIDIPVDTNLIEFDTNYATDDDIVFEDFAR
T1 sequence (P32121 whole entry): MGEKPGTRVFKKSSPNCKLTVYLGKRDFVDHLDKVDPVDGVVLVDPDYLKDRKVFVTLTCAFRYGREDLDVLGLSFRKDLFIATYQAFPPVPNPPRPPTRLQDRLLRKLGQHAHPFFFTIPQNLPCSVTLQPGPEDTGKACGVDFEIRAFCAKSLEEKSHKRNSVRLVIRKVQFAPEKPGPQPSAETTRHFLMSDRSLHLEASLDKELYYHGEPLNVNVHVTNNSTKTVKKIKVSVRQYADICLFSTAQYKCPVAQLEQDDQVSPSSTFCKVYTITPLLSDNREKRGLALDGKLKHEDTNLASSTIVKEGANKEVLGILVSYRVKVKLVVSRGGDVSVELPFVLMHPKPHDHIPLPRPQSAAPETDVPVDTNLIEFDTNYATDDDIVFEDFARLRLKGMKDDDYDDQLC

Row | SMILES | class averages represented as homo-oligomers (dimers/trimers) [1] [%] | maximal agonist induced βarr recruitment response [2]
1 | O=P(O)(O)OC1C(OP(=O)(O)O)C(OP(=O)(O)O)C(OP(=O)(O)O)C(OP(=O)(O)O)C1OP(=O)(O)O (centres unmarked) [IP6, inositol hexakisphosphate, reference compound] | 100 | –
2 | COc1cc(Cc2nccc3cc(OC)c(OC)cc23)c(C(C)=O)cc1OC [C29, 1-[2-[(6,7-dimethoxyisoquinolin-1-yl)methyl]-4,5-dimethoxyphenyl]ethanone] | – | significantly diminished
